Tested on: fertilized eggs of the zebrafish
Test: Developmental toxicity in zebrafish
Format: in vivo
Settings: 1, 10, 100 μg/mL; 4 hours exposure; judged 24 and 48 hours after fertilization
Experimental: 4. Confirmation of Presence of Developmental Toxicity in Zebrafish
In this case, a 1% DMSO aqueous solution that was a stock solution was used as the control material.
Specifically, each of the samples was prepared at concentrations of 1, 10, and 100 μg/mL using the stock solution. After each of the samples was adjusted to these concentrations, fertilized eggs of the zebrafish were exposed to each of the samples for 4 hours. 24 hours after fertilization (20 hours after the exposure to each of the samples) and 48 hours after fertilization (44 hours after the exposure to each of the samples), it was judged whether or not the samples were toxic overall. In this case, the toxicity was evaluated based on the indicators divided into eight categories (Normal Development; Death; Coagulated Egg; Necrotic Tissue; Eye Development Alteration; Edema (Pericardial Edema); Tail Formation; and General Retardation).
That is, it was confirmed that the serinol-based compound according to the present invention had no developmental toxicity.

CCCCCCCCCCCCCCCC(=O)NC(CO)CO [palmitoyl serinol]
developmental toxicity (development of fertilized eggs): developed normally

From US10987293B2, “Composition for skin external application” (DR. RAYMOND LABORATORIES, INC., priority 2018, dated 2021)
